Ki data for two compounds are collected here from US5674988A, “4-N-substituted sialic acids and their sialosides” (E. I. Du Pont de Nemours and Company, priority 1996, dated 1997).

Structures can show the parent of a compound that is named as a salt.

In the assay the target is influenza A neuraminidase. Put plainly: Radiolabeled-substrate neuraminidase inhibition assay (hydrolysis of 14C-labeled αDNeuAc(2-6)βDGal(1-4)DGlcNAc, A). The format is biochemical, influenza A virus. To be noted: substrate A at 1.0-8.0 mM; inhibitor 0.07, 0.14, 0.28 mM; 100 mM NaOAc-5 mM Na2HPO4 pH 5.5; 37° C.; from Lineweaver-Burk plots; read-out: inhibition constant Ki. The method, then:
In order to determine the effectiveness of the instant thiosialosides as neuraminidase inhibitors, incubations were performed involving the neuraminidase, the thiosialoside inhibitor and a ^14 C-labeled substrate, ^14 C-labeled αDNeuAc (2-6) βDGal (1-4) DGlcNAc (A).
Inhibition constants of the inhibitors were determined by incubating (37° C.) a solution of A at four different concentrations with the neuraminidase, in the presence or absence of the inhibitors. After the reaction, the reaction mixture was diluted with deionized water and passed through a column of Dowex resin. The column was further eluted with deionized water. Under these conditions, only the free LacNAc elutes. The eluant was diluted with Scintillation fluid (10 mL, Formula 989, NEN, MA) and the radioactivity was measured, and the amount of free LacNAc liberated was determined.
The activity of neuraminidase was measured with a radiolabeled substrate. […]
The neuraminidase concentration was 53 ug of influenza A virus in 60 uL of total reaction volume. […] The eluant was diluted with Scintillation fluid (10 mL), Formula 989, NEN, MA) and the radioactivity was measured for 2 or 5 min with a Liquid Scintillation counter. From the Lineweaver-Burk plots for the hydrolysis of A the inhibition constant Ki was calculated according to methods known in the art.

As usually defined, the Ki is a measure of affinity in units of concentration, obtained from inhibition or displacement. Regarding `CC(=O)NC1C(N)CC(OCC2OC(O)C(O)C(O)C2O)(C(=O)O)OC1C(O)C(O)CO` [Compound 12, Sodium Salt of 5-acetamido-4-amino-3,4,5-trideoxy-D-glycero-D-galacto-nonulopyranosylonicacid (2-6)-α-D-galacto-pyranose], the inhibition constant Ki came to 100 µM.
Consider `CC(=O)N[C@H]1[C@H]([C@H](O)[C@H](O)CO)O[C@@](S[C@H](C)[C@H]2OC(O)[C@H](O)[C@@H](O)[C@H]2O)(C(=O)O)C[C@@H]1N` (stereo partly drawn) [Compound 14, Sodium Salt of 5-acetamido-4-amino-2-thio-3,4,5-trideoxy-D-glycero-D-galacto-nonulopyranosylonic acid(2-S-6)-7-deoxy-α,β-D-glycero-D-galacto-heptopyranose], for which the Ki came to 51 µM.
